Assay results as given in ChEMBL document CHEMBL1201862, “PubChem BioAssay data set” (2004).
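Exposure lasted 48 hours, with cells grown in 96-well plates and compounds tested at five concentrations. The concentration for 50% growth inhibition is given as GI50.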 Calls of active or inactive are those of the source. Cut-off read from the data, not from the text of the source: active = GI50 up to about 1.1 µM and inactive = higher.

Assays:
Assay in all cases: inhibition of tumour cell growth, NCI panel, 48 h
NCI-H23 = tested on: NCI-H23
UO-31 = tested on: UO-31
U-251 = tested on: U-251
SF-268 = tested on: SF-268
TK-10 = tested on: TK-10
SF-295 = tested on: SF-295
Hs-578T = tested on: Hs-578T
RPMI-8226 = tested on: RPMI-8226
OVCAR-5 = tested on: OVCAR-5
SNB-19 = tested on: SNB-19
M14 = tested on: M14
SW-620 = tested on: SW-620
IGROV-1 = tested on: IGROV-1
NCI/ADR-RES = tested on: NCI/ADR-RES
MDA-MB-435 = tested on: MDA-MB-435
UACC-62 = tested on: UACC-62
SNB-75 = tested on: SNB-75
MOLT-4 = tested on: MOLT-4
UACC-257 = tested on: UACC-257
HCT-116 = tested on: HCT-116
SK-MEL-5 = tested on: SK-MEL-5
KM12 = tested on: KM12
HT-29 = tested on: HT-29
OVCAR-8 = tested on: OVCAR-8
NCI-H522 = tested on: NCI-H522
HCC 2998 = tested on: HCC 2998
RXF 393 = tested on: RXF 393
SR = tested on: SR
HOP-92 = tested on: HOP-92
CAKI-1 = tested on: CAKI-1
HOP-62 = tested on: HOP-62
BT-549 = tested on: BT-549
OVCAR-3 = tested on: OVCAR-3
DU-145 = tested on: DU-145
Malme-3M = tested on: Malme-3M
A498 = tested on: A498
PC-3 = tested on: PC-3
SK-MEL-28 = tested on: SK-MEL-28
MCF7 = tested on: MCF7
OVCAR-4 = tested on: OVCAR-4
EKVX = tested on: EKVX
COLO 205 = tested on: COLO 205
ACHN = tested on: ACHN
HCT-15 = tested on: HCT-15
T47D = tested on: T47D
LOX IMVI = tested on: LOX IMVI
SK-MEL-2 = tested on: SK-MEL-2
786-0 = tested on: 786-0
MDA-MB-231 = tested on: MDA-MB-231
NCI-H460 = tested on: NCI-H460
MDA-N = tested on: MDA-N
A549 = tested on: A549
SN12C = tested on: SN12C
SK-OV-3 = tested on: SK-OV-3
K562 = tested on: K562
SF-539 = tested on: SF-539
NCI-H226 = tested on: NCI-H226
HL-60 = tested on: HL-60
CCRF-CEM = tested on: CCRF-CEM

C[N+]1(Cc2ccc(Cl)c(Cl)c2)CCCC1C1CCCN(Cc2ccc(Cl)c(Cl)c2)C1 (stereo unspecified)
GI50 (NCI-H23): > 100 µM (inactive) | GI50 (UO-31): > 100 µM (inactive) | GI50 (U-251): > 100 µM (inactive) | GI50 (SF-268): > 100 µM (inactive) | GI50 (TK-10): > 100 µM (inactive) | GI50 (SF-295): > 100 µM (inactive) | GI50 (Hs-578T): > 100 µM (inactive) | GI50 (RPMI-8226): > 100 µM (inactive) | GI50 (OVCAR-5): > 100 µM (inactive) | GI50 (SNB-19): > 100 µM (inactive) | GI50 (M14): > 100 µM (inactive) | GI50 (SW-620): > 100 µM (inactive) | GI50 (IGROV-1): 70 µM (inactive) | GI50 (NCI/ADR-RES): > 100 µM (inactive) | GI50 (MDA-MB-435): > 100 µM (inactive) | GI50 (UACC-62): > 100 µM (inactive) | GI50 (SNB-75): > 100 µM (inactive) | GI50 (MOLT-4): > 100 µM (inactive) | GI50 (UACC-257): > 100 µM (inactive) | GI50 (HCT-116): > 100 µM (inactive) | GI50 (SK-MEL-5): 32.2 µM (inactive) | GI50 (KM12): > 100 µM (inactive) | GI50 (HT-29): > 100 µM (inactive) | GI50 (OVCAR-8): > 100 µM (inactive) | GI50 (NCI-H522): > 100 µM (inactive) | GI50 (HCC 2998): > 100 µM (inactive) | GI50 (RXF 393): > 100 µM (inactive) | GI50 (SR): > 100 µM (inactive) | GI50 (HOP-92): > 100 µM (inactive) | GI50 (CAKI-1): > 100 µM (inactive) | GI50 (HOP-62): > 100 µM (inactive) | GI50 (BT-549): > 100 µM (inactive) | GI50 (OVCAR-3): > 100 µM (inactive) | GI50 (DU-145): > 100 µM (inactive) | GI50 (Malme-3M): 82.4 µM (inactive) | GI50 (A498): > 100 µM (inactive) | GI50 (PC-3): > 100 µM (inactive) | GI50 (SK-MEL-28): > 100 µM (inactive) | GI50 (MCF7): > 100 µM (inactive) | GI50 (OVCAR-4): > 100 µM (inactive) | GI50 (EKVX): 46 µM (inactive) | GI50 (COLO 205): > 100 µM (inactive) | GI50 (ACHN): > 100 µM (inactive) | GI50 (HCT-15): > 100 µM | GI50 (T47D): > 100 µM (inactive) | GI50 (LOX IMVI): > 100 µM (inactive) | GI50 (SK-MEL-2): > 100 µM (inactive) | GI50 (786-0): > 100 µM (inactive) | GI50 (MDA-MB-231): > 100 µM (inactive) | GI50 (NCI-H460): > 100 µM (inactive) | GI50 (MDA-N): > 100 µM (inactive) | GI50 (A549): > 100 µM (inactive) | GI50 (SN12C): > 100 µM (inactive) | GI50 (SK-OV-3): > 100 µM (inactive) | GI50 (K562): 52.4 µM (inactive) | GI50 (SF-539): > 100 µM (inactive)

CC(C)C(Br)C(=O)NCC(=O)O (stereo unspecified)
GI50 (NCI-H23): > 100 µM (inactive) | GI50 (UO-31): > 100 µM (inactive) | GI50 (U-251): > 100 µM (inactive) | GI50 (SF-268): > 100 µM (inactive) | GI50 (TK-10): > 100 µM (inactive) | GI50 (SF-295): > 100 µM (inactive) | GI50 (Hs-578T): > 100 µM (inactive) | GI50 (RPMI-8226): > 100 µM (inactive) | GI50 (OVCAR-5): > 100 µM (inactive) | GI50 (SNB-19): > 100 µM (inactive) | GI50 (M14): > 100 µM (inactive) | GI50 (SW-620): > 100 µM (inactive) | GI50 (IGROV-1): > 100 µM (inactive) | GI50 (NCI/ADR-RES): > 100 µM (inactive) | GI50 (MDA-MB-435): > 100 µM (inactive) | GI50 (UACC-62): > 100 µM (inactive) | GI50 (SNB-75): > 100 µM (inactive) | GI50 (MOLT-4): > 100 µM (inactive) | GI50 (NCI-H226): > 100 µM (inactive) | GI50 (UACC-257): > 100 µM (inactive) | GI50 (HCT-116): > 100 µM (inactive) | GI50 (SK-MEL-5): > 100 µM (inactive) | GI50 (KM12): > 100 µM (inactive) | GI50 (HT-29): > 100 µM (inactive) | GI50 (OVCAR-8): > 100 µM (inactive) | GI50 (NCI-H522): > 100 µM (inactive) | GI50 (RXF 393): > 100 µM (inactive) | GI50 (SR): > 100 µM (inactive) | GI50 (HOP-92): > 100 µM (inactive) | GI50 (CAKI-1): > 100 µM (inactive) | GI50 (HOP-62): > 100 µM (inactive) | GI50 (BT-549): > 100 µM (inactive) | GI50 (OVCAR-3): > 100 µM (inactive) | GI50 (DU-145): > 100 µM (inactive) | GI50 (Malme-3M): > 100 µM (inactive) | GI50 (A498): > 100 µM (inactive) | GI50 (PC-3): > 100 µM (inactive) | GI50 (SK-MEL-28): > 100 µM (inactive) | GI50 (MCF7): > 100 µM (inactive) | GI50 (OVCAR-4): > 100 µM (inactive) | GI50 (EKVX): > 100 µM (inactive) | GI50 (COLO 205): > 100 µM (inactive) | GI50 (HL-60): 0.245 µM (active) | GI50 (ACHN): > 100 µM (inactive) | GI50 (HCT-15): > 100 µM | GI50 (T47D): > 100 µM (inactive) | GI50 (LOX IMVI): > 100 µM (inactive) | GI50 (SK-MEL-2): > 100 µM (inactive) | GI50 (786-0): > 100 µM (inactive) | GI50 (MDA-MB-231): > 100 µM (inactive) | GI50 (NCI-H460): > 100 µM (inactive) | GI50 (MDA-N): > 100 µM (inactive) | GI50 (CCRF-CEM): > 100 µM (inactive) | GI50 (A549): > 100 µM (inactive) | GI50 (SN12C): > 100 µM (inactive) | GI50 (SK-OV-3): > 100 µM (inactive) | GI50 (K562): > 100 µM (inactive) | GI50 (SF-539): > 100 µM (inactive)

CCOC(=O)/C=C/C1OC(C)(C)OC1/C=C/C(=O)OCC (stereo unspecified)
GI50 (NCI-H23): 40.6 µM (inactive) | GI50 (UO-31): > 100 µM (inactive) | GI50 (U-251): 41.3 µM (inactive) | GI50 (SF-268): 41.4 µM (inactive) | GI50 (TK-10): 39.3 µM (inactive) | GI50 (SF-295): 48.6 µM (inactive) | GI50 (Hs-578T): 37.8 µM (inactive) | GI50 (RPMI-8226): 24.8 µM (inactive) | GI50 (OVCAR-5): 29.9 µM (inactive) | GI50 (SNB-19): 33.9 µM (inactive) | GI50 (M14): 37.7 µM (inactive) | GI50 (SW-620): 19.7 µM (inactive) | GI50 (IGROV-1): 31.3 µM (inactive) | GI50 (NCI/ADR-RES): 32.7 µM (inactive) | GI50 (MDA-MB-435): 29 µM (inactive) | GI50 (UACC-62): 39.9 µM (inactive) | GI50 (SNB-75): 22.6 µM (inactive) | GI50 (MOLT-4): 28.4 µM (inactive) | GI50 (NCI-H226): > 100 µM (inactive) | GI50 (UACC-257): 48.4 µM (inactive) | GI50 (HCT-116): 30.8 µM (inactive) | GI50 (SK-MEL-5): 38.4 µM (inactive) | GI50 (KM12): 25.4 µM (inactive) | GI50 (HT-29): 18.2 µM (inactive) | GI50 (OVCAR-8): 25.5 µM (inactive) | GI50 (NCI-H522): 22.5 µM (inactive) | GI50 (HCC 2998): 23.2 µM (inactive) | GI50 (RXF 393): 9.91 µM (inactive) | GI50 (SR): 15.1 µM (inactive) | GI50 (HOP-92): 19.4 µM (inactive) | GI50 (CAKI-1): 20.8 µM (inactive) | GI50 (HOP-62): 23.7 µM (inactive) | GI50 (BT-549): 54.8 µM (inactive) | GI50 (DU-145): 34.8 µM (inactive) | GI50 (Malme-3M): 39.8 µM (inactive) | GI50 (A498): 42 µM (inactive) | GI50 (PC-3): 44.9 µM (inactive) | GI50 (SK-MEL-28): 28.4 µM (inactive) | GI50 (MCF7): 30.8 µM (inactive) | GI50 (OVCAR-4): 32.4 µM (inactive) | GI50 (EKVX): 29.8 µM (inactive) | GI50 (COLO 205): 30.6 µM (inactive) | GI50 (ACHN): 38.4 µM (inactive) | GI50 (HCT-15): 23.4 µM | GI50 (T47D): 29.4 µM (inactive) | GI50 (LOX IMVI): 27 µM (inactive) | GI50 (SK-MEL-2): 81.5 µM (inactive) | GI50 (786-0): 32.2 µM (inactive) | GI50 (MDA-MB-231): 39.9 µM (inactive) | GI50 (NCI-H460): 21.2 µM (inactive) | GI50 (MDA-N): 35.1 µM (inactive) | GI50 (CCRF-CEM): 17.2 µM (inactive) | GI50 (A549): 40.9 µM (inactive) | GI50 (SN12C): 22.6 µM (inactive) | GI50 (SK-OV-3): > 100 µM (inactive) | GI50 (K562): 21.4 µM (inactive) | GI50 (SF-539): 40.2 µM (inactive)
